Key:
Assay type in all cases: cell-based, human
[1] = tested on: AhR-responsive genes (CYP1B1 and AhRR); assay: Real-time quantitative RT-PCR for AhR-responsive genes (FIG. 1); details: mPB CD34(+) cells, 12 hours, Compound 1 500 nM
Method: Mobilized peripheral blood CD34(+) cells were cultured for 12 hours with DMSO, SR1 [AhR antagonist 1000 nM], and Compound 1 [500 nM], cells were harvested and real-time quantitative RT-PCR for AhR-responsive genes (CYP1B1 and AhRR) was performed.

[2] = tested on: CD34+ cells from mobilized PB; assay: Long term 10-day ex vivo culture of CD34+ cells from mobilized PB
Method: The following biological assays were used to assess the effect of the compounds of the invention on hematopoietic stem cell expansion. Culture medium: The culture medium used consisted of serum-free medium supplemented with the following recombinant cytokines: interleukin-6, thrombopoietin, Flt-3 ligand, and stem cell factor, each at a final concentration of 100 ng/ml, in the presence of vehicle (DMSO), positive control (SR1), or compound of the invention or a combination of compounds. Cell Culture: CD34+ cell purity of initial harvests was higher than 90%, as determined by flow cytometry. The CD34+CD45RA− subpopulation reached purity levels higher than 70%. Cells were plated at 40,000 cells/ml and incubated for 7 to 12-days at 37° C. in 5% CO2. For long term cultures, 200,000 CD34+ cells/ml from mobilized PB were plated with serum free media supplemented with interleukin-6, thrombopoietin, Flt3 ligand, and stem cell factor, each at a final concentration of 100 ng/ml, in the presence of vehicle (DMSO), positive control, or a compound of the invention at 500 nM. After a 10-day ex vivo culture Compound 1 (Table 1) promoted more than 7-fold expansion of MNCs, more than 5-fold increase in CD34+ cells over input values (day 0), and almost 4-fold increase over the values determined for vehicle. After 10 days of ex vivo culture, Compound 1-treated cells retained a high level of CD34 expression (65.8±5.5%) compared to cells cultured with vehicle (DMSO) (22.8±0.9%). Moreover, only Compound 1-treated cells retained the highest expression of CD34+CD45RA− population (24.8±0.9%) compared to that of vehicle (4.7±0.4%). The numbers of CD34+CD45RA− cultured with Compound 1 increased by almost 3-fold compared to that of vehicle and 7-fold more than that of input. Finally, the compounds of the invention were assayed in a dose-response format (concentrations ranging from 1 nM to 5000 nM) to determine the effective concentration that produced a 50% increase in the number of CD34+CD45RA− cells compared to vehicle condition.

[3] = tested on: CD34+CD45RA− cord blood cells; assay: Ex vivo expansion of cord blood-derived CD34+ and CD34+CD45RA− cells (FIG. 5B, 5C)

SMILES: COC(=O)c1ccc2c(c1)[nH]c1ncnc(NCCCN3CCCCC3)c12 [Compound 1, Methyl 4-((3-(piperidin-1-yl)propyl)amino)-9H-pyrimido[4,5-b]indole-7-carboxylate]
- suppression of AhR-downstream target genes (CYP1B1 and AhRR) [1]: does not suppress AhR-downstream target genes
- expansion of MNCs ([2]; 10-day ex vivo culture, 500 nM): more than 7 fold
- increase in CD34+ cells over input values (day 0) ([2]; 10-day ex vivo culture, 500 nM): more than 5 fold
- increase in CD34+ cells over the values determined for vehicle ([2]; 10-day ex vivo culture, 500 nM): ~4 fold
- numbers of CD34+CD45RA− compared to input ([2]; 10-day ex vivo culture, 500 nM): 7 fold
- numbers of CD34+CD45RA− compared to vehicle ([2]; 10-day ex vivo culture, 500 nM): ~3 fold
- expression of CD34+CD45RA− population ([2]; after 10 days of ex vivo culture, vehicle 4.7±0.4%): 24.8±0.9%
- level of CD34 expression ([2]; after 10 days of ex vivo culture, vehicle 22.8±0.9%): 65.8±5.5%
- expansion of cord blood-derived CD34+ and CD34+CD45RA− cells ([3]; 7-day incubation): enhances expansion
- in vitro expansion of cord blood-derived CD34+ and CD34+CD45RA− cells ([3]; 12-day incubation): positive effect
- expansion of CD34+CD45RA− cord blood cells ([3]; seven day period, DMSO about fifteen fold): 30-40 fold

Reference: patent publication US9409906B2, “Pyrimido[4,5-B]indole derivatives and use thereof in the expansion of hematopoietic stem cells” (UNIVERSITÉ DE MONTRÉAL, priority 2012, dated 2016)
